1 molecule from patent publication US20230251203A1, “METHOD FOR EVALUATING ADVERSE REACTION OF SESQUITERPENOIDS IN ZEDOARY TURMERIC OIL” (BEIJING FRIENDSHIP HOSPITAL, CAPITAL MEDICAL UNIVERSITY, priority 2021, published 2023) can be followed below.

Data set [1] relates to SD male rats. Kind of data set: Influences of β-elemene on blood gas when causing dyspnea of rats (abdominal aortic blood, blood-gas analyzer). The following applies: BE 1.5 mg/mL. In kind it is in vivo, rat. How it is done:
Preparation of a BE solution: BE reference substances were precisely weighed and dissolved by 8.8% Tween 80 solution and prepared into a BE solution having a concentration of 1.5 mg/mL.
12 pieces of SPF-grade SD male rats (6 weeks of age, weight: 200±25 g) were taken; and these rats were purchased from Beijing Vital River Laboratory Animal Technology Co., Ltd, production license number: SCXK (J.) 2016-0006.Animal experiments involved in the research process were approved by Ethics Committee. The feeding conditions of the experimental rats are as follows: standard illumination-dark period is 12 h, temperature is 22±1° C., and relative humidity is 60±5%.
The rats were randomly divided into 2 groups, 6 pieces each group. The rats were adaptively fed with common fodders for one week. Then the rats were subjected to overnight fasting (12 h), and then intraperitoneally injected with chloral hydrate (10 mg/mL, 4 mL/kg) for anesthetization. After anesthetization, the two groups were respectively injected with BE and normal saline via caudal vein with an administration volume of 6 mL/kg.
After administration, abdominal aortic blood was taken and immediately analyzed with a blood-gas analyzer.

Data set [2] addresses T1, hemoglobin (Hb) (Homo sapiens, UniProt P68871+P69905).
T1 construct: purchased Sigma H7379
Kind of data set: Surface plasmon resonance (SPR) interaction between β-elemene and hemoglobin. Format: binding. The following applies: Hb coupled on chip, BE 0.78-100.00 μM, FIGS. 8-9. How it is done:
Surface plasmon resonance (SPR) technology was used to verify the interaction between β-elemene and hemoglobin. […] It is generally acknowledged that KD of binding protein to small molecules has an acceptable scope of 10^−4-10^−6M.
(1) Preparation of a Hb solution: a proper amount of Hb was weighed precisely and prepared into a solution having a concentration of 1 mg/mL with ultrapure water, then 20-fold diluted by pH 4.5 acetic acid for further use;
(2) PBS-P+10× was prepared into PBS-P+2.1× with ultrapure water, then a proper amount of DMSO was taken and prepared into PBS 2× containing 5% DMSO+0.1% Tween 20, and filtered for further use;
(3) A proper amount of BE reference substances were weighed precisely and dissolved into DMSO to be prepared into 10 mM solution, then the solution was diluted with PBS-P+2.1× to a reference substance solution containing 5% DMSO; and then the reference substance solution was diluted successively by 2× PBS-P+ to 100.00 μM, 50.00 μM, 25.00 μM, 12.50 μM, 6.25 μM, 3.12 μM. 1.56 μM and 0.78 μM and vortexed for 1 min, and then filtered by 0.22 μm filter membrane for further use.
(1) Chip activation: carboxyl (channels 1 and 2) on a chip was activated by EDC/NHS;
(2) the channel 2 was selected and coupled to a certain amount of Hb;
(3) the activated carboxyl not coupled to proteins on the chip was blocked by ethanolamine; […]
In general terms: SPR reads the build-up and loss of mass on a sensor chip optically.

For data set [3], the target named is T2, hemoglobin (Hb) α-helix (Homo sapiens, UniProt P68871+P69905).
T2 construct: purchased Sigma H7379
T2 sequence (P69905 2-142 limits assumed): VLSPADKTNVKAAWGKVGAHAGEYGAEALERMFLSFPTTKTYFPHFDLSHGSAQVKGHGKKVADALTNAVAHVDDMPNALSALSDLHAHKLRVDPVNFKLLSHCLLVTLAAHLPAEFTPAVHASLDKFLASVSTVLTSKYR
T2 sequence (P68871 2-147 limits assumed): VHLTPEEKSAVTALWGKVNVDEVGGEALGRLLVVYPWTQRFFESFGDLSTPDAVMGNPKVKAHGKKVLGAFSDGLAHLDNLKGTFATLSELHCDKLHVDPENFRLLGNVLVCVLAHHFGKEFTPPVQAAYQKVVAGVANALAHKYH
Kind of data set: Circular dichroism (CD) influences of β-elemene on Hb structure. As to conditions: Hb 5 μM, BE 1.00-6.25 μM, 25° C.; effect increases with BE concentration; FIG. 10. How it is done: A circular dichroism spectrum technology (CD) was used to determine the influences of β-elemene on Hb structure.
Hb mainly presents α-helix at 200-250 nm. If the α-helix structure is changed, so do the shape of CD curve at 200-250 nm. The α-helix content of Hb at 222 nm may be calculated according to the equation (1): […]
The mean residue ellipticity (MRE) (degcm^2/dmol) is calculated according to the equation (2): […]
where, Cp is molar concentration (mM) of Hb; n is the number of amino acid residues; l is optical path (mm).
Preparation of a PBS solution: a proper amount of PBS buffer solution was taken and added a small amount of Tween 80, then prepared into a PBS solution containing 0.05% Tween 80.
Preparation of a Hb solution: a proper amount of Hb was weighed precisely and added a proper amount of PBS containing 0.05% Tween 80, then prepared into Hb having a concentration of 30 μM for further use. […]
(2) each concentration of sample was placed into a quartz sample pool from small to large (during solution exchange, the sample pool was cleaned by PBS and rinsed with the to-be-detected solution), then the sample pool was put to the sample chamber for detection in turn, and each sample was screened by spectrum for 3 times; […]

For data set [4], the target named is T1, hemoglobin (Hb). Kind of data set: UV absorbance of hemoglobin after interaction with sample (r value, dyspnea risk evaluation). How it is done: Preparation of Hb solution: a proper amount of Hb was precisely weighed and dissolved by normal saline (ultrasonic treatment for 30 s), and prepared into a solution having a concentration of 2 mg/mL.
Preparation of a BE solution: BE reference substance is precisely weighed and dissolved by 8.8% Tween 80 solution and prepared into a solution having a concentration of 1.5 mg/mL.
100 μL Hb solution was added to wells of a 96-well plate, and 100 μL BE sample solution, 100 μL 8.8% Tween 80 solution or 100 μL normal saline (as blank control) were successively added to the wells added with Hb solution. Each sample was repeated with 3 wells; then the microwell plate was covered, and the mixed solution was oscillated for 5 s in an oscillator to be mixed well, standing for 10 min at 25° C. A microplate reader was used for detection, and detection conditions were as follows: spectrum scanning was performed at 37° C. and 230-400 nm with a step size of 5 nm. […]
Where, OD is an absorbance value of a to-be-detected sample containing sesquiterpenoids in zedoary turmeric oil at a certain concentration at 280 nm after interacting with Hb; ODHb is an absorbance value of normal saline as a blank control at a wavelength of 280 nm after interacting with Hb; r is a ratio of OD to ODHb.

T1 sequence (P69905 2-142 limits assumed): as the sequence (P69905 2-142 limits assumed) above
T1 sequence (P68871 2-147 limits assumed): as the sequence (P68871 2-147 limits assumed) above

With `C=C[C@]1(C)CC[C@@H](C(=C)C)C[C@H]1C(=C)C` [BE, (1S, 2S, 4R)-1-vinyl-methyl-2,4-di(1-methylvinyl) cyclohexane], the “partial pressure of arterial oxygen” value in data set [1] (6 mL/kg via caudal vein vs normal saline, FIG. 2) was “significantly decrease”. In addition, the “arterial partial pressure of carbon dioxide” value in data set [1] (6 mL/kg via caudal vein vs normal saline, FIG. 3) is reported as “significantly decreases”. The “arterial blood pH” value in data set [1] (6 mL/kg via caudal vein vs normal saline, FIG. 4) is recorded as “no significant change”. In data set [1] (6 mL/kg via caudal vein vs normal saline, FIG. 5), the arterial oxygen saturation entry was “significantly decrease”. The total hemoglobin result in data set [1] (6 mL/kg via caudal vein vs normal saline, FIG. 6) is “significantly increases”. Further, the oxyhemoglobin result in data set [1] (6 mL/kg via caudal vein vs normal saline, FIG. 7) is listed as “significantly decreases”. The “observed symptoms after administration” value in data set [1] (6 mL/kg via caudal vein, recovery after stopping administration) was “suffered dyspnea symptoms”. In addition, in data set [2], the affinity, expressed as Kd, was 5.84 µM. Besides, the “effect on Hb α-helix (CD curve at 200-250 nm)” value in data set [3] is “makes Hb α-helix performing helix removal”. Further, in data set [4] (1.5 mg/mL BE solution + 2 mg/mL Hb, 100 μL each, FIG. 11), the “Hb absorbance within 260-300 nm” value is given as “significantly increasing”. Besides, the “r (ratio of OD to ODHb at 280 nm)” value in data set [4] (1.5 mg/mL BE solution, r>1.5 indicates high risk of dyspnea) is “≈ 1.8”.

In general, Kd refers to the constant that tells how readily two partners part at equilibrium. A lower Kd goes with higher affinity.
